Seven compounds from US20140235500A1, “HIGH THROUGHPUT INSTRUMENTATION TO SCREEN CELLS AND PARTICLES BASED ON THEIR MECHANICAL PROPERTIES” (The Regents of the University of California, priority 2011, published 2014) can be followed below.

One test deals with HL60 cells. In words: High throughput mechanical screening (HTMS): cell passage through porous membrane under applied pressure. As to conditions: for cell deformability: FIG. 27. The class given is cell-based, human. An excerpt: An initial prototype device (see, e.g., FIGS. 9-16) was machined out of polymethylmethacrylate (McMaster Carr) in the format of a 96-well plate containing: a porous membrane sandwiched between a bottom, multiwell collection plate, and a top loading plate. A pressure chamber seals the device and interfaces with a compressed air tank (see, e.g., FIG. 17).
In the initial prototype device, we use track-etched, polycarbonate membranes with 5 μm pore size (Millipore). To minimize adhesion, surface treatment with 10 mg/mL bovine serum albumin was performed prior to the experiment. To load the device, cells were deposited on top of the porous membrane in each individual well. The optimal loading density of cells was established iteratively with detection: a loading density of ˜10^6 cells/mL was optimal given the estimated lower detection limit of 10^2 cells/mL using a flow cytometer.
Once the device was loaded, the pressure chamber lid was placed on top to create a pressure-tight seal, and tubing was connected to a tank of compressed air with 5% CO2 that was outfitted with a pressure gauge (0-30 psi, 0.2 psi resolution, Airgas). An electro-pneumatic regulator (0-20 psi output, Omega) enabled precise control of the magnitude and duration of applied pressure for sub-second periods of time via control through LabVIEW. Pressures between 5-10 psi were estimated to generate ˜kPa-scale stresses required to deform cells with elastic moduli in the kPa range.
After applying pressure to induce deformation of cells through the pores, the number of passaged cells was counted. We used a flow cytometer to count cells in the individual wells of a 96-well plate using scattered light (forward versus side scatter) as a signal (LSRII flow cytometer, BD Biosciences). An entire 96-well plate was counted within 15 minutes.
(§1) As shown in FIG. 27 the effect of various anti-cancer drugs (e.g., cytochalisin D, paclitaxel, daunorubicin, colchicine) can readily be detected using the HTMS systems described herein. […] Without being bound by a particular theory, it is believed that that the changes in mechanical properties are produced by the action of the drugs on cytoskeletal elements (e.g., actin filaments). Similarly, as shown in FIG. 28 the HTMS measurements made herein can be used to detect dose-response effects of various agents (e.g., anti-cancer drugs) on cells. In this experiment, HL60 cells were treated with 10.0 μM colchicine. Without being bound by a particular theory it is believed that colchicine perturbs microtubules at low concentrations and stabilizes F-actin at high concentrations.

A further test deals with OVCAR5 cells. In words: HTMS measurement of drug treatment on ovarian cancer cells. As to conditions: OVCAR5-CIS+ cells treated for <1 day; 0.4 psi for 35 s; FIG. 32. Format: cell-based. The text has this:
FIG. 32 illustrates the use of HTMS measurements to detect the effects of drug treatment on cancer cells. Data: 0.4 psi for 35 s.
In addition, the HTMS systems described herein can be used to monitor the progression of drug treatments. Ovarian cancer cells: SKOV3 and OVCAR5 are cisplatin sensitive, while SKOV3-CISR and OVCAR5-CISR are cisplatin resistant.

Test [1] relates to human promyelocytic leukemia (HL60) cells. In words: Flow of cells through constricted microfluidic channels (deformation time). The class given is cell-based. As to conditions: HL60 cells treated with drug to perturb actin network; narrow constrictions. The text has this:
To dissect the contributions of nuclear physical properties to whole cell deformability, human promyelocytic leukemia (HL60) cells provide a convenient model system. These cells can be readily differentiated into neutrophil-type cells in vitro. During this process of granulopoiesis, the cell nucleus undergoes major changes in morphology as it transitions from an ovoid to an irregular, multi-lobed structure.
In addition to these induced changes in nuclear morphology, cytoskeletal protein expression is also altered. Levels of actin increase during differentiation, and cortical actin is implicated in the resistance of these cells to out-of-plane deformations. To determine the contributions of actin to cellular deformation, cells were treated with a drug (cytochalasin B) to perturb their actin network. […] One determinant of nucleus shape stability is the intermediate filament type protein, lamin A. This protein is a major constituent of the meshwork underlying the nuclear envelope, and its expression levels are directly linked to nuclear mechanical properties.

Test [2] deals with adherent murine mammary carcinoma cells (67NR). In words: HTMS measurement on adherent carcinoma cells. The class given is cell-based. As to conditions: 67NR cells; FIG. 29.
Source text: FIG. 29 illustrates the effect of various drugs on adherent murine mammary carcinoma cells (67NR).
as §1

Consider `CC(=O)O[C@H]1C(=O)[C@@]2(C)[C@H]([C@H](OC(=O)c3ccccc3)[C@]3(O)C[C@H](OC(=O)[C@H](O)[C@@H](NC(=O)c4ccccc4)c4ccccc4)C(C)=C1C3(C)C)[C@]1(OC(C)=O)CO[C@@H]1C[C@@H]2O` [paclitaxel], for which, in the test with HL60 cells (HL60 cells, 1.5 μM), the cell deformability entry is listed as “increase cell deformability”.
In the case of `N.N.[Cl][Pt][Cl]` [cisplatin], in the test on OVCAR5 cells, the “difference in HTMS measurement compared with OVCAR5 cells” value is “no apparent difference”.
Turning to `C=C1[C@@H](C)[C@H]2[C@H](Cc3ccccc3)NC(=O)[C@]23OC(=O)/C=C/[C@H](O)CCC[C@@H](C)C/C=C/[C@H]3[C@@H]1O` [cytochalasin B], the “difference in cellular deformation between treated and non-treated controls” value in test [1] was “no detectable difference”.
With `COc1cccc2c1C(=O)c1c(O)c3c(c(O)c1C2=O)C[C@@](O)(C(C)=O)C[C@@H]3O[C@H]1C[C@H](N)[C@H](O)[C@H](C)O1` [dauorubicin], the cell deformability result in the test on HL60 cells (HL60 cells, 1.0 μM) was “decrease the deformability”.
Turning to `C=C1[C@@H](C)[C@H]2[C@H](Cc3ccccc3)NC(=O)[C@]23[C@H](OC(C)=O)/C=C/[C@@](C)(O)C(=O)[C@@H](C)C/C=C/[C@H]3[C@@H]1O` [cytochalasin D], the cell deformability entry in the test with HL60 cells (HL60 cells, 2.0 μM) was “increase cell deformability”.
Consider `COc1cc2c(c(OC)c1OC)-c1ccc(OC)c(=O)cc1[C@@H](NC(C)=O)CC2` [colchicine], for which, in the test with HL60 cells (HL60 cells, 10.0 μM), the cell deformability entry was “decrease the deformability”. Also, in the test with HL60 cells (HL60 cells, low drug concentration, FIG. 28), the “cell stiffness (dose response)” value is given as “increased cell stiffness”. In addition, the “dose response effects on cell mechanical properties” value in test [2] is “Dose response effects of colchicine are also observed”.
Regarding `CC1=C(/C=C/C(C)=C/C=C/C(C)=C/C(=O)O)C(C)(C)CCC1` [ATRA], the “pressure dependence of cell passage versus HL60 cells” value in the test on HL60 cells (neutrophil-type (ATRA-treated) cells, FIG. 25) is on record as “different pressure dependence”.
